Nine molecules from patent publication US20260317324A1, “BIFUNCTIONAL COMPOUNDS FOR DEGRADING BRAF VIA UBIQUITIN PROTEOSOME PATHWAY” (Nurix Therapeutics, Inc., priority 2023, published 2026) can be followed below.

Common to all, as to assay type: cell-based
One experiment has as its target T1, BRAF G469A (Homo sapiens, UniProt P15056, G469A).
T1 construct: Horizon Discovery (HCT-116 BRAF−/− cells); host or cells: HCT-116 BRAF−/− cells, clone 34, lentiviral transduction
Kind of experiment: BRAF HiBiT degradation assay, C-terminal HiBiT-tagged BRAF G469A overexpressed in HCT-116 BRAF−/− cells (clone 34), Nano-Glo HiBiT Lytic assay. A digest of the protocol: (§1)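 HCT-116 BRAF−/− cells stably expressing the tagged mutant were seeded at 3,000 cells/well and grown 24 h at 37 °C before an 11-point half-log series from 1 μM to 0.01 nM, run in duplicate at 0.2% DMSO. Lytic HiBiT luminescence gave % protein remaining versus DMSO controls; DC50 was the fitted concentration at 50%.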

The next experiment has as its target T2, BRAF D594G (Homo sapiens, UniProt P15056, D594G).
T2 construct: Horizon Discovery (HCT-116 BRAF−/− cells); host or cells: HCT-116 BRAF−/− cells, clone 63, lentiviral transduction
Kind of experiment: BRAF HiBiT degradation assay, C-terminal HiBiT-tagged BRAF D594G overexpressed in HCT-116 BRAF−/− cells (clone 63), Nano-Glo HiBiT Lytic assay. The gist of the method: as §1
For orientation: HiBiT is a short tag that completes a luciferase, so light tracks the accessible tagged protein.

The next experiment has as its target T3, BRAF G466V (Homo sapiens, UniProt P15056, G466V).
T3 construct: Horizon Discovery (HCT-116 BRAF−/− cells); host or cells: HCT-116 BRAF−/− cells, clone 8, lentiviral transduction
Kind of experiment: BRAF HiBiT degradation assay, C-terminal HiBiT-tagged BRAF G466V overexpressed in HCT-116 BRAF−/− cells (clone 8), Nano-Glo HiBiT Lytic assay. A digest of the protocol: as §1

A further experiment addresses T4, BRAF V600E (Homo sapiens, UniProt P15056, V600E).
T4 construct: endogenous C-terminal HiBiT fusion tag on BRAF V600E allele; endogenous in cells; host or cells: A375 clone 1F10 (CRISPR-Cas9 knock-in of the HiBiT tag; parental A375 from ATCC)
The experiment is described as follows: BRAF HiBiT degradation assay, C-terminal HiBiT-tagged BRAF V600E A375 cells (clone 1F10), Nano-Glo HiBiT Lytic assay. The following applies: for Dmax: A-375. The gist of the method: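 A375 cells with CRISPR knock-in C-terminal HiBiT on endogenous BRAF V600E (clone 1F10) were seeded and cultured 24 h at 37 °C, then dosed with an 11-point half-log series (1 μM to 0.01 nM, duplicate, 0.2% DMSO). Lytic HiBiT luminescence gave % protein remaining; DC50 was the fitted concentration at 50%.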

The mark [1] stands for this setting: Class 2, BRAF G469A, DC50 at 50%: fitted conc. at Y=50.
Where [2] appears, read: HCT-116, Class 2, BRAF G469A, percentage protein degraded at maximal compound effect relative to DMSO.
[3] abbreviates: BRAF D594G, DC50 at 50%: fitted conc. at Y=50.
The mark [4] stands for this setting: HCT-116, BRAF D594G, percentage protein degraded at maximal compound effect relative to DMSO.
The mark [5] stands for this setting: BRAF G466V, DC50 at 50%: fitted conc. at Y=50.
Setting [6] is: HCT-116, BRAF G466V, percentage protein degraded at maximal compound effect relative to DMSO.
The mark [7] stands for this setting: A375 (BRAF V600E), DC50 at 50%: fitted conc. at Y=50.
Setting [8] is: A375 (BRAF V600E), percentage protein degraded at maximal compound effect relative to DMSO.
Where [9] appears, read: BRAF G469A (Class 2), HCT-116 BRAF−/− cells, DC50 at 50% degradation.
[10] abbreviates: BRAF G469A (Class 2), HCT-116 BRAF−/− cells, observed Dmax relative to DMSO control.
Setting [11] is: BRAF D594G (Class 3), HCT-116 BRAF−/− cells, DC50 at 50% degradation.
[12] abbreviates: BRAF D594G (Class 3), HCT-116 BRAF−/− cells, observed Dmax relative to DMSO control.
Where [13] appears, read: BRAF G466V (Class 3), HCT-116 BRAF−/− cells, DC50 at 50% degradation.
Where [14] appears, read: BRAF G466V (Class 3), HCT-116 BRAF−/− cells, observed Dmax relative to DMSO control.
[15] abbreviates: A375 (BRAF V600E, Class 1), DC50 at 50% degradation.
Where [16] appears, read: A375 (BRAF V600E, Class 1), observed Dmax, % protein degraded relative to DMSO control.

Where only a bound is given, the exact number is not on record here.

T1 sequence (P15056 whole entry G469A): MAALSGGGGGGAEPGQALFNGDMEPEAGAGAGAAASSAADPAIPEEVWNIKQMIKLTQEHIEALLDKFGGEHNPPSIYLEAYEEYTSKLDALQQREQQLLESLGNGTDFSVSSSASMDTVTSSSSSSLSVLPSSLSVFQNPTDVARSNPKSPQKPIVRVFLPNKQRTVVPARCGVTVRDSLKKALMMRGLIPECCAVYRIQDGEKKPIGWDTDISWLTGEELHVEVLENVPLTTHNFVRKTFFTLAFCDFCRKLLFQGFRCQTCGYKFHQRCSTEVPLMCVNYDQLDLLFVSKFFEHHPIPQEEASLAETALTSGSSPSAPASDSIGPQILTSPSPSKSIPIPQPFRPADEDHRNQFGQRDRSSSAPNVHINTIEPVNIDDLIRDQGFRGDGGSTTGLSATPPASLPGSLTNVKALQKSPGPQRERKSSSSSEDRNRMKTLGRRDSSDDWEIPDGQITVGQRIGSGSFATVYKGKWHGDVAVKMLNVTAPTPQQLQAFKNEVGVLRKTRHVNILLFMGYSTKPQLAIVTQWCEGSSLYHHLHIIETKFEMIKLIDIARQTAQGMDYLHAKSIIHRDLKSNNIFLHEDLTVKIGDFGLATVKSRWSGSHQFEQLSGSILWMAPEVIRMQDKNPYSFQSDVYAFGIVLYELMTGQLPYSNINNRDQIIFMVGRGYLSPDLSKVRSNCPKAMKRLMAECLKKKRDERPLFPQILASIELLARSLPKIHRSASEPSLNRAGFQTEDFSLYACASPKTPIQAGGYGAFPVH
T4 sequence (P15056 whole entry V600E, the tested form may be a part): as the sequence (P15056 whole entry G469A) above, with A469G, V600E counted along it
T3 sequence (P15056 whole entry G466V): as the sequence (P15056 whole entry G469A) above, with G466V, A469G counted along it
T2 sequence (P15056 whole entry D594G): as the sequence (P15056 whole entry G469A) above, with A469G, D594G counted along it

For the molecule `CCCS(=O)(=O)Nc1cccc(-c2nc(C(C)(C)C)sc2-c2ccnc(Nc3ccc(C4CCN(CC5CCN(c6ccc([C@H]7CCC(=O)NC7=O)cc6)CC5)CC4)cc3)n2)c1F` [Compound 89, N-[3-(2-tert-butyl-5-{2-[(4-{1-[(1-{4-[(3R)-2,6-dioxopiperidin-3-yl]phenyl}piperidin-4-yl)methyl]piperidin-4-yl}phenyl)amino]pyrimidin-4-yl}-1,3-thiazol-4-yl)-2-fluorophenyl]propane-1-sulfonamide], the 50% degradation concentration (DC50) on BRAF G469A (setting [1]) is above 500 nM; on BRAF D594G (setting [3]), above 500 nM; on BRAF G466V (setting [5]), above 500 nM; on BRAF V600E (setting [7]), 10 to 50 nM. In addition, the maximal degradation (Dmax) on BRAF G469A (setting [2]) was 30 to 70%; on BRAF D594G (setting [4]), 30 to 70%; on BRAF G466V (setting [6]), 30 to 70%; on BRAF V600E (setting [8]) it was above 70%.

As for `CCCS(=O)(=O)Nc1cccc(-c2nc(C(C)(C)C)sc2-c2ccnc(Nc3cccc(OC4CCN(C(=O)[C@@H]5CCN(c6ccc(C7CCC(=O)NC7=O)cn6)C5)CC4)c3)n2)c1F` (mixture of isomers) [Compound 94, N-{3-[2-tert-butyl-5-(2-{[3-({1-[(3R)-1-{5-[(3RS)-2,6-dioxopiperidin-3-yl]pyridin-2-yl}pyrrolidine-3-carbonyl]piperidin-4-yl}oxy)phenyl]amino}pyrimidin-4-yl)-1,3-thiazol-4-yl]-2-fluorophenyl}propane-1-sulfonamide], the half-maximal degradation concentration (DC50) on BRAF G469A (setting [1]) was above 500 nM; on BRAF D594G (setting [3]) it was below 10 nM; at BRAF G466V (setting [5]), below 10 nM; on BRAF V600E (setting [7]), below 10 nM. In addition, the Dmax on BRAF G469A (setting [2]) was 30 to 70%; at BRAF D594G (setting [4]) it was 30 to 70%; at BRAF G466V (setting [6]) it was 30 to 70%; on BRAF V600E (setting [8]) it was above 70%.

For `O=C1CCN(c2ccc(N3CCC(CN4CCN(c5ccc(-n6cc(-c7cc(Cl)cc(NS(=O)(=O)N8CCCC8)c7F)c(-c7ccncc7)n6)cc5)CC4)CC3)nc2)C(=O)N1` [Compound 355, N-[5-chloro-3-(1-{4-[4-({1-[5-(2,4-dioxo-1,3-diazinan-1-yl)pyridin-2-yl]piperidin-4-yl}methyl)piperazin-1-yl]phenyl}-3-(pyridin-4-yl)-1H-pyrazol-4-yl)-2-fluorophenyl]pyrrolidine-1-sulfonamide], the DC50 is 10 to 50 nM at BRAF G469A (setting [9]), below 10 nM on BRAF D594G (setting [11]), below 10 nM on BRAF G466V (setting [13]) and below 10 nM on BRAF V600E (setting [15]). In addition, the maximal degradation (Dmax) at BRAF G469A (setting [10]) was 30 to 70%; on BRAF D594G (setting [12]), 30 to 70%; on BRAF G466V (setting [14]), above 70%; on BRAF V600E (setting [16]) it was above 70%.

`CCN(C)S(=O)(=O)Nc1cc(Cl)cc(-c2cn(-c3ccc(N4CCN(CC5CCN(c6ccc(N7CCC(=O)NC7=O)cc6)CC5)CC4)cn3)nc2-c2ccncc2)c1F` [Compound 311, 1-(4-{4-[(4-{6-[4-(5-chloro-3-{[ethyl(methyl)sulfamoyl]amino}-2-fluorophenyl)-3-(pyridin-4-yl)-1H-pyrazol-1-yl]pyridin-3-yl}piperazin-1-yl)methyl]piperidin-1-yl}phenyl)-1,3-diazinane-2,4-dione]: the DC50 on BRAF G469A (setting [9]) was above 500 nM; at BRAF D594G (setting [11]) it was 10 to 50 nM; on BRAF G466V (setting [13]), 50 to 500 nM; on BRAF V600E (setting [15]) it was 10 to 50 nM. Besides, the maximal degradation (Dmax) at BRAF G469A (setting [10]) was 30 to 70%; at BRAF D594G (setting [12]) it was 30 to 70%; on BRAF G466V (setting [14]) it was 30 to 70%; at BRAF V600E (setting [16]), above 70%.

In the case of `CCCS(=O)(=O)Nc1cccc(-c2nc(C(C)(C)C)sc2-c2ccnc(Nc3cnn(C4CCN(CC5CCN(c6ccc(C(=O)N[C@@H]7CCC(=O)NC7=O)nc6)CC5)CC4)c3)n2)c1F` [Compound 67, 5-{4-[(4-{4-[(4-{2-tert-butyl-4-[2-fluoro-3-(propane-1-sulfonamido)phenyl]-1,3-thiazol-5-yl}pyrimidin-2-yl)amino]-1H-pyrazol-1-yl}piperidin-1-yl)methyl]piperidin-1-yl}-N-[(3R)-2,6-dioxopiperidin-3-yl]pyridine-2-carboxamide], the DC50 is above 500 nM at BRAF G469A (setting [1]), above 500 nM at BRAF D594G (setting [3]), above 500 nM on BRAF G466V (setting [5]) and below 10 nM at BRAF V600E (setting [7]). Also, the Dmax on BRAF G469A (setting [2]) was below 30%; at BRAF D594G (setting [4]) it was 30 to 70%; on BRAF G466V (setting [6]), below 30%; at BRAF V600E (setting [8]) it was 30 to 70%.

For the molecule `CCN(C)S(=O)(=O)Nc1cccc(-c2nc(C)sc2-c2ccnc(Nc3ccc(N4CCN(C(=O)C5CCN(c6ccc(C7CCC(=O)NC7=O)cn6)CC5)CC4)cn3)n2)c1F` (racemic) [Compound 40, Rac-(3S)-3-[6-(4-{4-[6-({4-[4-(3-{[ethyl(methyl)sulfamoyl]amino}-2-fluorophenyl)-2-methyl-1,3-thiazol-5-yl]pyrimidin-2-yl}amino)pyridin-3-yl]piperazine-1-carbonyl}piperidin-1-yl)pyridin-3-yl]piperidine-2,6-dione], the 50% degradation concentration (DC50) on BRAF G469A (setting [1]) was 10 to 50 nM; on BRAF D594G (setting [3]), above 500 nM; on BRAF G466V (setting [5]) it was above 500 nM; at BRAF V600E (setting [7]) it was below 10 nM. In addition, the greatest degradation seen (Dmax) was 30 to 70% on BRAF G469A (setting [2]), 30 to 70% on BRAF D594G (setting [4]), 30 to 70% on BRAF G466V (setting [6]) and above 70% on BRAF V600E (setting [8]).

As for `CCN(C)S(=O)(=O)Nc1cccc(-c2nc(C)sc2-c2ccnc(Nc3ccc(N4CCN(CC5(F)CCN(c6ccc(C7CCC(=O)NC7=O)cc6)CC5)CC4)cn3)n2)c1F` (racemic) [Compound 33, Rac-(3S)-3-{4-[4-({4-[6-({4-[4-(3-{[ethyl(methyl)sulfamoyl]amino}-2-fluorophenyl)-2-methyl-1,3-thiazol-5-yl]pyrimidin-2-yl}amino)pyridin-3-yl]piperazin-1-yl}methyl)-4-fluoropiperidin-1-yl]phenyl}piperidine-2,6-dione], the DC50 on BRAF G469A (setting [1]) was below 10 nM; at BRAF D594G (setting [3]), 10 to 50 nM; on BRAF G466V (setting [5]), below 10 nM; on BRAF V600E (setting [7]), 10 to 50 nM. In addition, the maximal degradation (Dmax) at BRAF G469A (setting [2]) was 30 to 70%; on BRAF D594G (setting [4]), 30 to 70%; at BRAF G466V (setting [6]) it was 30 to 70%; at BRAF V600E (setting [8]), above 70%.

Turning to `CCCS(=O)(=O)Nc1cccc(-c2nc(-c3ccc(N4CCN(CC5CCN(c6ccc([C@H]7CCC(=O)NC7=O)cc6)CC5)CC4)cc3)sc2-c2ccnc(N)n2)c1F` [Compound 191, N-{3-[5-(2-aminopyrimidin-4-yl)-2-(4-{4-[(1-{4-[(3R)-2,6-dioxopiperidin-3-yl]phenyl}piperidin-4-yl)methyl]piperazin-1-yl}phenyl)-1,3-thiazol-4-yl]-2-fluorophenyl}propane-1-sulfonamide], the DC50 on BRAF G469A (setting [1]) is above 500 nM; at BRAF D594G (setting [3]) it was above 500 nM; at BRAF G466V (setting [5]), 10 to 50 nM; at BRAF V600E (setting [7]), below 10 nM. Moreover, the greatest degradation seen (Dmax) was 30 to 70% at BRAF G469A (setting [2]), 30 to 70% on BRAF D594G (setting [4]), 30 to 70% on BRAF G466V (setting [6]) and above 70% at BRAF V600E (setting [8]).

For `CCCS(=O)(=O)Nc1cccc(-c2nc(-c3ccc(N4CCN(CC5CCN(c6ccc(C7CCC(=O)NC7=O)cn6)CC5)CC4)cc3)sc2-c2ccnc(N)n2)c1F` (racemic) [Compound 187, Rac-N-{3-[5-(2-aminopyrimidin-4-yl)-2-(4-{4-[(1-{5-[(3R)-2,6-dioxopiperidin-3-yl]pyridin-2-yl}piperidin-4-yl)methyl]piperazin-1-yl}phenyl)-1,3-thiazol-4-yl]-2-fluorophenyl}propane-1-sulfonamide], the half-maximal degradation concentration (DC50) on BRAF G469A (setting [1]) was 10 to 50 nM; at BRAF D594G (setting [3]), below 10 nM; on BRAF G466V (setting [5]), 10 to 50 nM; at BRAF V600E (setting [7]), below 10 nM. The maximal degradation (Dmax) was 30 to 70% at BRAF G469A (setting [2]), 30 to 70% at BRAF D594G (setting [4]), 30 to 70% at BRAF G466V (setting [6]) and above 70% at BRAF V600E (setting [8]).

In general, DC50 refers to the concentration giving 50% degradation. Higher therefore signals degradation only at high concentration. One may read the Dmax as the largest share of the target that was removed.
